Reference: US5871937A, “Acute phase protein modulating endotoxic activity of lipopolysaccharides, assay methods and polypeptides” (priority 1997, dated 1999)
Like-named read-outs stand apart in the source and are kept apart here.

Columns and labels:
purified lapine LBP [1] = target: T1, purified lapine LBP (Oryctolagus cuniculus, UniProt P17454); experiment: Microtiter binding assay: inhibition of LBP binding to Re595 LPS-coated plates; set-up: species or system rabbit; conditions: for Inhibition of LBP binding to LPS plate, in words: qualitative analysis of Table IV; for IC50: read-out: ED50 (the source's name) (converted)
T1 construct: the mature secreted protein present in impure form in acute phase sera; from tissue; host or cells: acute phase rabbit serum (silver nitrate induced), Bio-Rex 70 and Mono-Q columns
Source text: (§1) The binding of purified lapine LBP to LPS immobilized on plastic microtiter plates has also been examined. The presence of LBP bound to LPS was detected with goat anti-rabbit LBP and peroxidase conjugated rabbit anti-goat IgG.
The data from these studies are shown in Table IV, below, where the numerical results are the concentrations necessary to reduce the binding of 1 microgram (ug)/ml LBP to the plate by 50 percent; i.e., ED50. It is noted that in some instances, the structure of the inhibitor is either not fully defined or the inhibitor is heterogeneous, thereby preventing a calculation of a molar concentration for ED50.
(§2) Microtiter plates were coated with LPS by incubating 100 ul/well of 30 ug/ml Re595 LPS in 0.1M Na2 Co3, 20 mM EDTA, pH 9.6 for 3 hours at 37°. The LPS solution was flicked out, the plates rinsed thoroughly under running water and air dried overnight. The binding properties of the dried, LPS-coated plates remain unchanged for up to eight weeks. Excess binding sites were then blocked with 200 ul/well of 10 mg/ml BSA in 50 mM HEPES, 0.15M NaCl, pH 7.4 (HS buffer) for 30 minutes at 37° temperature with agitation, after which the BSA solution was flicked out.
LBP samples, APRS, or NRS were added in a total volume of 100 ul/well diluted in 1 mg/ml BSA in HS buffer. Binding of LBP was allowed to occur for 3 hours at 37°. The plate was then rinsed 3 times with 200 ul/well of 1 mg/ml BSA in HS buffer with agitation over a 10 minute interval.
Goat anti-LBP serum, 100 ul/well, diluted 2000 times in 1 mg/ml BSA in HS buffer was then incubated in the wells for 2 hours at 37°. The anti-LBP antiserum was then rinsed out as above and replaced for 1 hour at room temperature with 100 ul/well of peroxidase conjugated rabbit anti-goat IgG diluted 2500 times in 1 mg/ml BSA.
(§3) Finally, 100 ul/well o-phenylenediamine solution (4 mM o-phenylenediamine, 2.3 mM H2 O2, 50 mM citric acid, 133 mM Na2 HPO4, pH 5.0) were added and the resulting composition maintained until sufficient color had developed (5-15 minutes). The reaction was stopped by addition of 100 ul/well 5M H2 SO4 and the absorbance at 490 nm of each well was quantitated in a microtiter plate reader. Mean absorbances and standard errors of the means were calculated from 4-8 replicates of each well.
Inhibition of LBP binding to the plate was studied by premixing the compound under study at the desired concentration with 1 ug/ml purified LBP for 10 minutes at 37° before adding the mixture to the microtiter plate.

purified lapine LBP [2] = target: T1, purified lapine LBP; experiment: Binding of purified lapine LBP to LPS types and lipid A partial structures (microtiter plate); conditions: detected with goat anti-rabbit LBP and peroxidase conjugated rabbit anti-goat IgG
Description: as §1
(§4) Binding affinities of LBP for LPS are near 10^9 m^-1.
as §2, with “out. […]” for “out.”
as §3

[3] = NRS reconstitution assay for LBP activity (C1.3 formation, retardation of LPS binding to HDL); assay type: biochemical, rabbit; conditions: added to NRS
Description: Two examples of the NRS reconstitution assay for lipopolysaccharide binding protein (LBP) activity in the lapine (rabbit) system are shown in FIG. 5. In control studies, no systematic dependence on the assay results were observed when smaller total assay volumes; i.e., 0.5 or 0.25 ml rather than the standrard 1 ml, were used.
The basic method used during development of the purification procedure for LBP was a reconstitution assay in which fractions of acute phase serum were assayed for their ability to reconstitute "acute phase behavior" in NRS. The screening assay used was to mix a sample of the material to be tested with 1.0 ml of NRS at 37 degrees C. for 30 minutes. LPS and EDTA were then added to the concentrations given above, and the LPS-HDL binding reaction was allowed to proceed for ten minutes at 37 degrees before addition of CsCl and centrifugation. The 10 minute reaction time was chosen as a compromise between the times required for LPS to bind to HDL in NRS and APRS. […]
To quantitate LBP activity in purified fractions of APRS, the reconstitution assay just described was performed with a series of different amounts of the sample being assayed up to a maximum of 200 ul per ml NRS. After centrifugation and quantitation of the LPS in C1.3, a plot of percent LPS as C1.3 versus sample volume was made. […]

Gram-negative bacteria = conditions: similar conditions for LBP and BPI; cited from earlier work
[4] = Binding affinity of LBP for LPS; conditions: association constant
Source text: as §1, §4

[5] = concentration necessary to reduce the binding of 1 ug/ml LBP to the Re595 LPS-coated plate by 50 percent
[6] = concentration necessary to reduce the binding of 1 ug/ml LBP to the plate by 50 percent

Row | Molecule | ED50 (purified lapine LBP [1]; [5]) | Inhibition of LBP binding to LPS plate, in words (purified lapine LBP [1]) | IC50 (purified lapine LBP [1]; [5]) | IC50 (purified lapine LBP [1]; [6]) | also measured
1 | Heparin | 21,000 ng/ml | inhibitory only at high concentrations | – | – | –
2 | CCCCCCCCCCC[C@@H](O)CC(=O)N[C@H]1[C@H](OC[C@H]2O[C@H](OP(=O)(O)O)[C@H](NC(=O)C[C@H](O)CCCCCCCCCCC)[C@@H](OC(=O)C[C@H](O)CCCCCCCCCCC)[C@@H]2O)O[C@H](CO)[C@@H](OP(=O)(O)O)[C@@H]1OC(=O)C[C@H](O)CCCCCCCCCCC [precursor IVA] | – | – | – | – | Binding of LBP to the substance (purified lapine LBP [2]): bind
3 | CCCCCCCCCCC[C@@H](O)CC(=O)N[C@H]1[C@@H](OP(=O)(O)O)O[C@H](CO)[C@@H](O)[C@@H]1OC(=O)C[C@H](O)CCCCCCCCCCC [Lipid x] | – | – | 3.93 µM | 3.9 µM | Binding of LBP to the substance (purified lapine LBP [2]): only poorly
4 | Dextran sulfate | 73 ng/mL | fairly good ligands | – | – | –
5 | 0-[2-amino-2-deoxy-N^2 -(3-hydroxytetradecanoyl)-beta-D-glucopyranosyl]-(1-6)-amino-2-deoxy-N^2 -(3-hydroxytetradecanoyl)-alpha-D-glucopyranose 1,4'-bisphosphate [DADG-BSA] | 540 ng/mL | – | – | 0.57 µM | –
6 | CCCCCCCCCCCCCC(=O)OCC(COP(=O)(O)O)OC(=O)CCCCCCCCCCCCC (stereo not drawn) [Dimyristoyl phosphatidic acid, dimyristoyl phosphatidic acid] | – | – | 4.22 µM | 3.9 µM | –
7 | CCCCCCCCCCCCCC(=O)O[C@H](CCCCCCCCCCC)CC(=O)O[C@@H]1[C@@H](NC(=O)C[C@@H](CCCCCCCCCCC)OC(=O)CCCCCCCCCCC)[C@H](OC[C@H]2O[C@H](OP(=O)(O)O)[C@H](NC(=O)C[C@H](O)CCCCCCCCCCC)[C@@H](OC(=O)C[C@H](O)CCCCCCCCCCC)[C@@H]2O)O[C@H](CO)[C@H]1OP(=O)(O)O [J5 LA (synthetic)] | – | – | 0.0222 µM | 0.02 µM | –
8 | Nc1ncnc2c1ncn2[C@@H]1O[C@H](COP(=O)(O)O)[C@@H](O)[C@H]1O [AMP, adenosine-5'-monophosphate] | – | ineffective | > 2880 µM | > 2800 µM | –
9 | Lipoteichoic acid | 480 ng/mL | fairly good ligands | – | – | –
10 | rabbit CRP: rabbit C-reactive protein (protein, UniProt P02742 21-225, looked up) C-reactive protein: AGMHKKAFVFPKESDNSYVSLNAQLKKPLKAFTVCLYFYTDLSMTRGYSIFSYATRRQFNEILLFWSKDIGYSFSVGGDEIIFKVSDIPVDPTHLCASWESSTGIAELWVDGKPMVRKSLKKGYILGPEASIILGQDQDSFGGSFEKQQSLVGDIGNVNMWDYALSPEEINTIYAGGTFSPNVLDWRELTYQVRGEVHVKPQLWP | – | – | – | – | Retardation of LPS binding to HDL / reconstitution of acute phase behavior in normal rabbit serum [3]: does not reconstitute the observed phenomena
11 | BPI: bactericidal/permeability increasing protein, a product of neutrophils (protein, UniProt P17213 32-487, looked up) Bactericidal …: VNPGVVVRISQKGLDYASQQGTAALQKELKRIKIPDYSDSFKIKHLGKGHYSFYSMDIREFQLPSSQISMVPNVGLKFSISNANIKISGKWKAQKRFLKMSGNFDLSIEGMSISADLKLGSNPTSGKPTITCSSCSSHINSVHVHISKSKVGWLIQLFHKKIESALRNKMNSQVCEKVTNSVSSELQPYFQTLPVMTKIDSVAGINYGLVAPPATTAETLDVQMKGEFYSENHHNPPPFAPPVMEFPAAHDRMVYLGLSDYFFNTAGLVYQEAGVLKMTLRDDMIPKESKFRLTTKFFGTFLPEVAKKFPNMKIQIHVSASTPPHLSVQPTGLTFYPAVDVQAFAVLPNSSLASLFLIGMHTTGSMEVSAESNRLVGELKLDRLLLELKHSNIGPFPVELLQDIMNYIVPILVLPRVNEKLQKGFPLPTPARVQLYNVVLQPHQNFLLFGADVVYK | – | – | – | – | Bactericidal effect (Gram-negative bacteria): kills
12 | LBP: acute phase glycoprotein of about 60 kD that binds LPS and retards its binding to HDL (protein, UniProt P17454 27-482, looked up) Lipopolysaccharide-binding …: TNPGLITRITDKGLEYAAREGLLALQRKLLEVTLPDSDGDFRIKHFGRAQYKFYSLKIPRFELLRGTLRPLPGQGLSLDISDAYIHVRGSWKVRKAFLRLKNSFDLYVKGLTISVHLVLGSESSGRPTVTTSSCSSDIQNVELDIEGDLEELLNLLQSQIDARLREVLESKICRQIEEAVTAHLQPYLQTLPVTTQIDSFAGIDYSLMEAPRATAGMLDVMFKGEIFPLDHRSPVDFLAPAMNLPEAHSRMVYFSISDYVFNTASLAYHKSGYWNFSITDAMVPADLNIRRTTKSFRPFVPLLANLYPNMNLELQGTVNSEQLVNLSTENLLEEPEMDIEALVVLPSSAREPVFRLGVATNVSATLTLNTRKITGFLKPGRLQVELKESKVGGFNVELLEALLNYYILNNLYPKVNEKLAHRFPLPLLRHIQLYDLLLQTHENFLLVGANIQYRRV | – | – | – | – | Binding affinities of LBP for LPS [4]: ~10^9 m^-1; Retardation of LPS binding to HDL / reconstitution of acute phase behavior in normal rabbit serum [3]: retards binding; Bactericidal effect (Gram-negative bacteria): no bactericidal effects
